The values that follow are results of earlier work, collected in patent publication US20060240399A1, “Long-term shelf preservation of cells and multicellular specimens by vitrification” (priority 1999, published 2006).

The data set concerns Drosophila melanogaster embryos. The following applies: co-solute added to vitrification solution.
Turning to `N[C@@H](CCC(=O)O)C(=O)O` [glutamic acid], the “effect on ethylene glycol permeation inside embryos” value (from here on “effect”) is “significantly diminished”.
On to `NCC(=O)O` [glycine], for which the “effect” value was “significantly diminished”.
In the case of `OC[C@@H](O)[C@@H](O)[C@H](O)[C@@H](O)CO` [sorbitol], the “effect” value is given as “significantly diminished”.
